ChEMBL document CHEMBL6096638, “Design, synthesis and biological evaluation of novel TMPRSS2-PROTACs with florosubstituted 4-guanidino-N-phenylbenzamide derivative ligands” (Bioorg Med Chem, 2024)
Active and inactive are the calls of the source. The calls are words filed in the database; no cut-off is given here.

What was measured:
[1] = biological target: von Hippel-Lindau disease tumor suppressor/Transmembrane protease serine 2 (Homo sapiens) (UniProt O15393+P40337); test: PROTAC activity at VHL/TMPRSS2 in human HT-29 cells assessed as induction of TMPRSS2 degradation at 2.5 uM incubated for 24 hrs by Western blotting analysis; type: cell-based
Calu-3 [2] = test: Antiproliferative activity against human Calu-3 cells assessed as inhibition of cell growth at 20 uM incubated for 48 hrs by CCK-8 assay relative to control; type: functional
HT-29 [3] = test: Antiproliferative activity against human HT-29 cells assessed as inhibition of cell growth at 20 uM incubated for 48 hrs by CCK-8 assay relative to control; type: functional
DU-145 [4] = test: Antiproliferative activity against human DU-145 cells assessed as inhibition of cell growth at 20 uM incubated for 48 hrs by CCK-8 assay relative to control; type: functional
HT-29 [5] = test: Induction of apoptosis in human HT-29 cells assessed as viable cells at 0.2 uM incubated for 48 hrs by Annexin V-FITC/PI staining based flow cytometric analysis (reference value: 90.4 %); type: functional; details: read-out: Activity
HT-29 [6] = test: Induction of apoptosis in human HT-29 cells assessed as early apoptotic cells at 0.2 uM incubated for 48 hrs by Annexin V-FITC/PI staining based flow cytometric analysis (reference value: 1.22 %); type: functional
HT-29 [7] = test: Induction of apoptosis in human HT-29 cells assessed as late apoptotic cells at 0.2 uM incubated for 48 hrs by Annexin V-FITC/PI staining based flow cytometric analysis (reference value: 5.87 %); type: functional
HT-29 [8] = test: Induction of apoptosis in human HT-29 cells assessed as necrotic cells at 0.2 uM incubated for 48 hrs by Annexin V-FITC/PI staining based flow cytometric analysis (reference value: 2.48 %); type: functional
HT-29 [9] = test: Induction of apoptosis in human HT-29 cells assessed as viable cells at 0.4 uM incubated for 48 hrs by Annexin V-FITC/PI staining based flow cytometric analysis (reference value: 90.4 %); type: functional; details: read-out: Activity
HT-29 [10] = test: Induction of apoptosis in human HT-29 cells assessed as early apoptotic cells at 0.4 uM incubated for 48 hrs by Annexin V-FITC/PI staining based flow cytometric analysis (reference value: 1.22 %); type: functional
HT-29 [11] = test: Induction of apoptosis in human HT-29 cells assessed as late apoptotic cells at 0.4 uM incubated for 48 hrs by Annexin V-FITC/PI staining based flow cytometric analysis (reference value: 5.87 %); type: functional
HT-29 [12] = test: Induction of apoptosis in human HT-29 cells assessed as necrotic cells at 0.4 uM incubated for 48 hrs by Annexin V-FITC/PI staining based flow cytometric analysis (reference value: 2.48 %); type: functional
HT-29 [13] = test: Induction of apoptosis in human HT-29 cells assessed as viable cells at 0.8 uM incubated for 48 hrs by Annexin V-FITC/PI staining based flow cytometric analysis (reference value: 90.4 %); type: functional; details: read-out: Activity
HT-29 [14] = test: Induction of apoptosis in human HT-29 cells assessed as early apoptotic cells at 0.8 uM incubated for 48 hrs by Annexin V-FITC/PI staining based flow cytometric analysis (reference value: 1.22 %); type: functional
HT-29 [15] = test: Induction of apoptosis in human HT-29 cells assessed as late apoptotic cells at 0.8 uM incubated for 48 hrs by Annexin V-FITC/PI staining based flow cytometric analysis (reference value: 5.87 %); type: functional
HT-29 [16] = test: Induction of apoptosis in human HT-29 cells assessed as necrotic cells at 0.8 uM incubated for 48 hrs by Annexin V-FITC/PI staining based flow cytometric analysis (reference value: 2.48 %); type: functional
HT-29 [17] = test: Induction of cell cycle arrest in human HT-29 cells assessed as accumulation of cells at G2 phase at 0.8 uM incubated for 36 hrs by PI-staining based flow cytometry; type: functional
HT-29 [18] = test: Inhibition of colony formation in human HT-29 cells incubated for 24 hrs by crystal violet staining based analysis; type: functional, cell-based; details: dose 0.1-0.4 µM
HT-29 [19] = test: Inhibition of cell migration in human HT-29 cells at 0.2 to 0.8 uM incubated for 48 hrs by wound healing assay; type: functional, cell-based; details: dose 0.2-0.8 µM
DU-145 [20] = test: Antiproliferative activity against human DU-145 cells assessed as inhibition of cell growth incubated for 48 hrs by CCK-8 assay; type: functional, cell-based; details: DU-145, 48 h
HepG2 = test: Antiproliferative activity against human HepG2 cells assessed as inhibition of cell growth incubated for 48 hrs by CCK-8 assay; type: functional, cell-based; details: HepG2, 48 h
HT-29 [21] = test: Antiproliferative activity against human HT-29 cells assessed as inhibition of cell growth incubated for 48 hrs by CCK-8 assay; type: functional, cell-based; details: HT-29, 48 h
Calu-3 [22] = test: Antiproliferative activity against human Calu-3 cells assessed as inhibition of cell growth incubated for 48 hrs by CCK-8 assay; type: functional, cell-based; details: Calu-3, 48 h
A549 = test: Antiproliferative activity against human A549 cells assessed as inhibition of cell growth incubated for 48 hrs by CCK-8 assay; type: functional, cell-based; details: A549, 48 h
MDA-MB-231 = test: Antiproliferative activity against human MDA-MB-231 cells assessed as inhibition of cell growth incubated for 48 hrs by CCK-8 assay; type: functional, cell-based; details: MDA-MB-231, 48 h
AGS = test: Antiproliferative activity against human AGS cells assessed as inhibition of cell growth incubated for 48 hrs by CCK-8 assay; type: functional, cell-based
PC-3 = test: Antiproliferative activity against human PC-3 cells assessed as inhibition of cell growth incubated for 48 hrs by CCK-8 assay; type: functional, cell-based; details: PC-3, 48 h
MRC5 = test: Antiproliferative activity against human MRC5 cells assessed as inhibition of cell growth incubated for 48 hrs by CCK-8 assay; type: functional, cell-based; details: MRC5, 48 h
SK-N-AS = test: Antiproliferative activity against human SK-N-AS cells assessed as inhibition of cell growth incubated for 48 hrs by CCK-8 assay; type: functional, cell-based
A-375 = test: Antiproliferative activity against human A-375 cells assessed as inhibition of cell growth incubated for 48 hrs by CCK-8 assay; type: functional, cell-based; details: A-375, 48 h
786-0 = test: Antiproliferative activity against human 786-0 cells assessed as inhibition of cell growth incubated for 48 hrs by CCK-8 assay; type: functional, cell-based; details: 786-0, 48 h
NCI-H1299 = test: Antiproliferative activity against human NCI-H1299 cells assessed as inhibition of cell growth incubated for 48 hrs by CCK-8 assay; type: functional, cell-based; details: NCI-H1299, 48 h
SH-SY5Y = test: Antiproliferative activity against human SH-SY5Y cells assessed as inhibition of cell growth incubated for 48 hrs by CCK-8 assay; type: functional, cell-based
K562 = test: Antiproliferative activity against human K562 cells assessed as inhibition of cell growth incubated for 48 hrs by CCK-8 assay; type: functional, cell-based; details: K562, 48 h
MCF7 = test: Antiproliferative activity against human MCF7 cells assessed as inhibition of cell growth incubated for 48 hrs by CCK-8 assay; type: functional, cell-based; details: MCF7, 48 h
CWR22R = test: Antiproliferative activity against human 22Rv1 cells assessed as inhibition of cell growth incubated for 48 hrs by CCK-8 assay; type: functional, cell-based; details: 22Rv1, 48 h
VCaP = test: Antiproliferative activity against human VCaP cells assessed as inhibition of cell growth incubated for 48 hrs by CCK-8 assay; type: functional, cell-based

von Hippel-Lindau disease tumor suppressor/Transmembrane protease serine 2 (Homo sapiens), sequence (O15393 whole entry, looked up): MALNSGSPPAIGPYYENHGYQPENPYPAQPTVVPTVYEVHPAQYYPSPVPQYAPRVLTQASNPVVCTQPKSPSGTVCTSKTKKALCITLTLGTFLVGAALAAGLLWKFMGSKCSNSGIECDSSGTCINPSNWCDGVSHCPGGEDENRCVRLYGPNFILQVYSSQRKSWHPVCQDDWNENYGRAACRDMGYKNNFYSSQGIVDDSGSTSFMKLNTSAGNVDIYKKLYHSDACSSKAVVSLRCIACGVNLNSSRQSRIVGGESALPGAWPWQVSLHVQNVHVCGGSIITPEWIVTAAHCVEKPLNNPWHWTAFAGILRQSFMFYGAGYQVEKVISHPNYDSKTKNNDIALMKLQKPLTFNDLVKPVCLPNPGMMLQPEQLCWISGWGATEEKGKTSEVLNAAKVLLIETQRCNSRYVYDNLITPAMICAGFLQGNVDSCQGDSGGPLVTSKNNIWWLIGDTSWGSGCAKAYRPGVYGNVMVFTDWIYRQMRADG
von Hippel-Lindau disease tumor suppressor/Transmembrane protease serine 2 (Homo sapiens), sequence (P40337 whole entry, looked up): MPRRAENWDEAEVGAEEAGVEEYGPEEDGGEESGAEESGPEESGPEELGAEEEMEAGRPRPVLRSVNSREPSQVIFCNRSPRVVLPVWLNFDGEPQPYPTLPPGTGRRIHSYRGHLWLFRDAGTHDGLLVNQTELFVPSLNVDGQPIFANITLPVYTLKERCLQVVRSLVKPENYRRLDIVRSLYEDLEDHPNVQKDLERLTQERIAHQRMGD

Cc1ncsc1-c1ccc([C@H](C)NC(=O)[C@@H]2C[C@@H](O)CN2C(=O)[C@@H](NC(=O)CN2CCC(CN3CCN(c4ccc(NC(=O)c5cc(F)c(NC(=N)N)cc5F)cc4)CC3)CC2)C(C)(C)C)cc1.Cl
Activity [1]: Active | inhibition at 20 µM (Calu-3 [2]): 96.1% | inhibition at 20 µM (HT-29 [3]): 94.6% | inhibition at 20 µM (DU-145 [4]): 74.6% | viability at 0.2 µM (HT-29 [5]): 78.8% | Activity (HT-29 [6]): 1.58% | Activity (HT-29 [7]): 13% | Activity (HT-29 [8]): 6.59% | viability at 0.4 µM (HT-29 [9]): 80.4% | Activity (HT-29 [10]): 3.74% | Activity (HT-29 [11]): 11.6% | Activity (HT-29 [12]): 4.21% | viability at 0.8 µM (HT-29 [13]): 58.5% | Activity (HT-29 [14]): 15.3% | Activity (HT-29 [15]): 23.2% | Activity (HT-29 [16]): 3.01% | Activity (HT-29 [17]): Active | inhibition (HT-29 [18]): Dose-dependent-effect | Activity (HT-29 [19]): Active | IC50 (DU-145 [20]): 5.26 µM | IC50 (HepG2): 8.73 µM | IC50 (HT-29 [21]): 0.39 µM | IC50 (Calu-3 [22]): 1.62 µM | IC50 (A549): 12.3 µM | IC50 (MDA-MB-231): 10.7 µM | IC50 (AGS): 14.9 µM | IC50 (PC-3): 24.5 µM | IC50 (MRC5): > 40 µM | IC50 (SK-N-AS): 6.91 µM | IC50 (A-375): 9.63 µM | IC50 (786-0): 34.8 µM | IC50 (NCI-H1299): > 40 µM | IC50 (SH-SY5Y): 18 µM | IC50 (K562): 9.01 µM | IC50 (MCF7): 13.3 µM | IC50 (CWR22R): 20 µM | IC50 (VCaP): 7.57 µM
